Key:
rat osteoblasts = assay: Osteoblast proliferation, [3H]-thymidine incorporation; type: cell-based; details: versus vehicle control; for proliferation of rat osteoblasts, as measured by thymidine incorporation (FIG. 1): primary fetal rat calvarial osteoblasts, peptide 1×10^−9 M, 20-24 hours; for proliferation of rat osteoblasts, as measured by thymidine incorporation, parallel comparison (FIG. 4): various concentrations, compared in parallel
Method: Osteoblasts were isolated from 20 day fetal rat calvariae as previously described (Cornish et al., American Journal of Physiology—Endocrinology & Metabolism 277: E779-E783, 1999). Briefly, calvariae were dissected aseptically and the frontal and parietal bones are stripped of their periosteum. Only the central portions of the bones, free from suture tissue, were collected. The calvariae were treated twice with phosphate buffered saline (PBS) containing 3 mM EDTA (pH 7.4) for 15 minutes at 37° C. in a shaking water bath. Calvariae were washed once in PBS and treated twice with 3 ml of collagenase (1 mg/ml) for 7 minutes at 37° C. After discarding supernatants from the first two collagenase digestions, calvariae were treated twice with 3 ml collagenase (2 mg/ml) for 30 minutes at 37° C. The supernatants from these third and fourth collagenase digestions were collected, pooled and centrifuged. The pelleted cells were washed in Dulbecco's modified Eagle's medium (DME) with 10% fetal calf serum (FCS), resuspended in DME/10% FCS, and placed in 75 cm^2 flasks. Cells were incubated under 5% CO2 and 95% air at 37° C. Cells were grown to confluence (approximately 5-6 days) and then subcultured.
To set up subcultures, cells were trypsinized in trypsin-EDTA (0.05%/0.53 mM), rinsed in minimal essential medium (MEM) with 5% FCS, resuspended in fresh medium, and seeded at 5×10^4 cells/ml in 24-well plates (0.5 ml cell suspension per well, i.e., 1.4×10^4 cells/cm^2).
To evaluate the proliferative responses of osteoblast cultures in the presence of preptin and various fragments of preptin, subconfluent cell cultures were growth arrested by incubation in MEM/0.1% bovine serum albumin 24 hours prior to addition of test compounds. Cells were cultured in the presence of full-length preptin (preptin 1-34), preptin 1-19, preptin 20-34, or in the absence of preptin compounds (control). Preptin compounds were added to a final concentration of 1×10^−9 M. A pulse of [^3H]-thymidine (1 […]) was added to each sample two hours prior to the end of each experimental incubation. The incubations were terminated 20-24 hours after addition of preptin compounds by washing the cells in MEM containing non-radioactive thymidine, followed by the addition of 10% trichloroacetic acid. The precipitate was washed twice either ethanol:ether (3:1) and the wells were desiccated at room temperature. The residue in each well was redissolved in 2 M KOH at 55° C. for 30 minutes, neutralized with 1 M HCl, and an aliquot was removed to quantitate incorporation of radioactivity in the samples. The results are depicted in FIG. 1. […] The results are representative of at least four independent assays.

[1] = tested on: isolated, perfused rat pancreas; details: infusion into isolated, Buchanan et al. 2001; cited from earlier work

Substance	proliferation of rat osteoblasts, as measured by thymidine incorporation (FIG. 1) (rat osteoblasts)	insulin secretion [1]	proliferation of rat osteoblasts, as measured by thymidine incorporation, parallel comparison (FIG. 4) (rat osteoblasts)
Asp Val Ser Thr R1 R2 R3 Val Leu Pro Asp R4 Phe Pro Arg Tyr Pro Val Gly Lys Phe Phe R5 R6 Asp Thr Trp R7 Gln Ser R8 Rg Arg Leu [preptin 1-34, reference compound]	stimulated	significant increase in the second phase of secretion	–
preptin 20-34: a C-terminal fragment of preptin (KFFQYDTWKQSTQRL; Preptin; UniProt P01344 112-126, looked up, fragment) [reference compound]	No enhancement of osteoblast proliferation was observed	–	did not stimulate a significant increase in proliferation at any of the concentrations tested
Asp Val Ser Thr R1 R2 R3 Val Leu Pro Asp R4 Phe Pro Arg Tyr Pro Val Gly [preptin 1-19]	enhances osteoblast proliferation in vitro, to levels comparable to those stimulated by full-length preptin	–	significant increase in proliferation at 1×10^−9M

From patent publication US20070173456A1, “PREPTIN FRAGMENTS AND METHODS OF USE” (Auckland UniServices Limited, priority 2005, published 2007)
